Measurements from the SangsterLogP compilation.

experiment: method code SF, from DOI: 10.1021/jm00344a020, PMID: 7057427

Row | SMILES | logP
1 | O=C(NC1CCCC1)N1CC=CCC1 | 1.92
2 | CCOC(=O)NN1CC=CCC1 | 1.09
3 | O=C(NN1CC=CCC1)C1CCCCC1 | 0.45
4 | O=C(NN1CC=CCC1)C1CCCCCC1 | 1.5
5 | O=C(NN1CC=CCC1)C1CC1 | 1.12
6 | CC(=O)NN1CC=CCC1 | 0.52

experiment: method code SF-AS, from DOI: 10.1021/jm00344a020, PMID: 7057427

Row | SMILES | logP
7 | O=C(Cc1ccc2c(c1)OCO2)NN1CC=CCC1 | 0.68
8 | O=C(NN1CC=CCC1)c1cccc(C(=O)NN2CC=CCC2)n1 | -0.52
9 | O=C(NN1CC=CCC1)C12CC3CC(CC(C3)C1)C2 | 1.45
10 | O=C(NN1CC=CCC1)c1cccs1 | 1.88
11 | O=C(NN1CC=CCC1)c1ccco1 | 0.81
12 | CC(C)(C)C(=O)NN1CC=CCC1 | 1.03
13 | O=C(NN1CC=CCC1)c1cccc[n+]1[O-] | -0.32
14 | O=C(Cc1cccnc1)NN1CC=CCC1 | 0.05
15 | O=C(COc1ccccc1)NN1CC=CCC1 | -0.06
16 | O=C(COc1cccc2ccccc12)NN1CC=CCC1 | 1.96
